Test results from US12690590B2, “Phenyl compound and plant disease control method” (SUMITOMO CHEMICAL COMPANY, LIMITED, priority 2020, dated 2026).

Experiments:
Phytophthora infestans = format: in vivo; settings: 200 ppm foliar spray, tomatoes (Patio), inoculated 1 day after spraying
Microsphaera diffusa = experiment: Test Example 10: test for controlling soybean powdery mildew, foliar spray after inoculation; format: in vivo; settings: 200 ppm foliar spray 2 days after inoculation, soybeans (Kurosengoku)

| Compound | lesion area in the treated tomatoes relative to the lesion area in the non-treated tomatoes (Phytophthora infestans) | lesion area in the treated soybeans relative to the lesion area in the non-treated soybeans (Microsphaera diffusa) |
| --- | --- | --- |
| CCCS(=O)(=O)c1nc(-c2ccc(C(C)(C)C)cc2)cs1 [IIC-16] | ≤ 30% | – |
| CCCCCSc1ccn(-c2ccc(Cl)cc2)n1 [IIA-53] | – | ≤ 30% |
